Values joined by “and” are separate entries in the source; they are usually repeats but may differ in a detail not shown here. Equal entries are not always repeated. Where a SMILES comes first, the peptide text is derived from it. [ ]: non-standard residue; d: D form. Hyp = O=C(O)[C@@H]1C[C@@H](O)CN1
Legend:
VEGF-A = test: Example 9 Luminex, LPS hPBMCs: VEGF-A; type: cell-based, human; conditions: no LPS
Method: (§1) Treatment Human PBMCs were pretreated with YY-101, YDE-011 and YDE-043 or reference compound; Xiidra® at various concentration (ranging from 1 nM to 100 uM) for 2 h before stimulation. An equal volume of 0.5% DMSO was used as a vehicle control. Then, the cells were treated with LPS at 5 ug/ml. The supernatants from treated cells were harvested at 24 h and placed in a 96 well for Luminex cytokine & chemokine profiling using a Luminex 200 multiplex assay (Luminex; R&D system, USA).
(§2) The main study arm with triplicate wells per group in a 24-well plate: • 1. Blank • 2. PBMC: 0.5% DMSO • 3. PBMC+LPS (5 ug/ml) • 4. PBMC+YY-101 100 uM • 5. PBMC+YY-101 10 uM • 6. PBMC+YY-101 1 uM • 7. PBMC+YY-101 0.1 uM • 8. PBMC+YY-101 0.01 uM • 9. PBMC+LPS (5 ug/ml)+Xiidra®100 uM • 10. PBMC+LPS (5 ug/ml)+Xiidra® 10 uM • 11. PBMC+LPS (5 ug/ml)+Xiidra® 1 uM • 12. PBMC+LPS (5 ug/ml)+Xiidra®0.1 uM • 13. PBMC+LPS (5 ug/ml)+Xiidra®0.01 uM • 14. PBMC+LPS (5 ug/ml)+Xiidra®0.001 uM • 15. PBMC+LPS (5 ug/ml)+YY-101 100 uM • 16. PBMC+LPS (5 ug/ml)+YY-101 10 uM • 17. PBMC+LPS (5 ug/ml)+YY-101 1 uM • 18. PBMC+LPS (5 ug/ml)+YY-101 0.1 uM • 19. PBMC+LPS (5 ug/ml)+YY-101 0.01 uM • 20. PBMC+LPS (5 ug/ml)+YY-101 0.001 uM • 21. PBMC+LPS (5 ug/ml)+YDE-011 100 uM • 22. PBMC+LPS (5 ug/ml)+YDE-011 10 uM • 23. PBMC+LPS (5 ug/ml)+YDE-011 1 uM • 24. PBMC+LPS (5 ug/ml)+YDE-011 0.1 uM • 25. PBMC+LPS (5 ug/ml)+YDE-011 0.01 uM • 26. PBMC+LPS (5 ug/ml)+YDE-011 0.001 uM • 27. PBMC+LPS (5 ug/ml)+YDE-043 100 uM • 28. PBMC+LPS (5 ug/ml)+YDE-043 10 uM • 29. PBMC+LPS (5 ug/ml)+YDE-043 1 uM • 30. PBMC+LPS (5 ug/ml)+YDE-043 0.1 uM • 31. PBMC+LPS (5 ug/ml)+YDE-043 0.01 uM • 32. PBMC+LPS (5 ug/ml)+YDE-043 0.001 uM
(§3) Multiplex assay was used to measure 30 cytokines and chemokines. The 1:2, 1:10 and 1:200 diluted cell supernatant and serial dilution of the standard were dispensed into a 96 well plate at 50 ul/well. Then, the pre-mixed cocktail of antibody-coated magnetic beads was dispensed at 50 ul/well and incubated at room temperature for 2 h in a horizontal orbital microplate shaker at 800±500 rpm. The beads were washed using a magnetic device to prevent loss. The biotin-antibody was dispensed in 50 ul of each well and incubated at room temperature for 1 h in a shaker at 800±500 rpm. After washing, streptavidin-PE was added at 50 ul/well and incubated at room temperature for 30 min in a shaker under the same conditions. Finally, after washing, wash buffer (100 ul/well) was added to the plate and incubated in a shaker for 2 min. The Luminex™ 200 setting were set according to the manufacturer's protocol. The data was calculated with a standard five-parameter logistic nonlinear regression analysis of the data (xPonent software 4.2, USA). The levels of cytokine/chemokine are normalized to the live cell counts (1×10^5 cells/mL) and presented as concentrations per mL (pg/mL or ng/mL).

IL-1 alpha = test: Example 9 Luminex, LPS hPBMCs: IL-1 alpha; type: cell-based, human; conditions: for Concentration / conc/live cell: IL-1 alpha, replicates and Mean
Method: as §1, §2, §3

[1] = PBMC + test article 10 uM, Mean
[2] = PBMC + test article 10 uM, single replicates
[3] = PBMC + test article 100 uM, Mean
[4] = PBMC + test article 100 uM, single replicates
[5] = PBMC + LPS(5 ug/ml) + YY101 0.001 uM
[6] = PBMC + LPS(5 ug/ml) + YY101 0.001 uM, mean
[7] = PBMC + LPS(5 ug/ml) + YY101 0.01 uM
[8] = PBMC + LPS(5 ug/ml) + YY101 0.01 uM, mean
[9] = PBMC + LPS(5 ug/ml) + YY101 0.1 uM
[10] = PBMC + LPS(5 ug/ml) + YY101 0.1 uM, mean
[11] = PBMC + LPS(5 ug/ml) + YY101 1 uM
[12] = PBMC + LPS(5 ug/ml) + YY101 1 uM, mean
[13] = PBMC + LPS(5 ug/ml) + YY101 10 uM
[14] = PBMC + LPS(5 ug/ml) + YY101 10 uM, mean
[15] = PBMC + LPS(5 ug/ml) + YY101 100 uM
[16] = PBMC + LPS(5 ug/ml) + YY101 100 uM, mean
[17] = PBMC + YY101 0.01 uM (second group so labelled), no LPS
[18] = PBMC + YY101 0.01 uM (second group so labelled), no LPS, mean
[19] = PBMC + YY101 0.01 uM, no LPS, mean
[20] = PBMC + YY101 1 uM, no LPS, mean
[21] = PBMC + YY101 10 uM, no LPS, mean
[22] = PBMC + YY101 100 uM, no LPS, mean

SMILES: CC(C)C[C@H](NC(=O)CNC(=O)[C@H](CC(=O)O)NC(=O)[C@H](CCC(N)=O)NC(=O)CNC(=O)[C@@H]1C[C@@H](O)CN1)C(=O)N[C@@H](C)C(=O)NCC(=O)N1CCC[C@H]1C(=O)N[C@@H](CCCCN)C(=O)O [YY-101] (H-[Hyp]GQDGLAGPK-OH; N-terminus and C-terminus assumed)
- MFI, Bead name: VEGF-A (VEGF-A; [1]): 1.0
- conc/live cell, Bead name: VEGF-A (VEGF-A; [1]): 1.3 pg/10^5
- Concentration, Bead name: VEGF-A (VEGF-A; [2]): 7.3 pg/mL and 8.5 pg/mL
- MFI, Bead name: VEGF-A (VEGF-A; [2]): 0.8 and 1.3
- conc/live cell, Bead name: VEGF-A (VEGF-A; [2]): 1.1 pg/10^5 and 1.4 pg/10^5
- Concentration, Bead name: VEGF-A (VEGF-A; [3]): 3.6 pg/mL
- MFI, Bead name: VEGF-A (VEGF-A; [3]): −0.8
- conc/live cell, Bead name: VEGF-A (VEGF-A; [3]): 0.5 pg/10^5
- Concentration, Bead name: VEGF-A (VEGF-A; [4]): 3.6 pg/mL
- MFI, Bead name: VEGF-A (VEGF-A; [4]): −0.8
- conc/live cell, Bead name: VEGF-A (VEGF-A; [4]): 0.6 pg/10^5 and 0.5 pg/10^5
- Concentration (IL-1 alpha; [5]): 426.2 pg/mL and 461.9 pg/mL and 419.9 pg/mL
- conc/live cell (IL-1 alpha; [5]): 74.8 pg/10^5 and 65.1 pg/10^5 and 63.6 pg/10^5
- Concentration (IL-1 alpha; [6]): 436.0 pg/mL
- conc/live cell (IL-1 alpha; [6]): 67.8 pg/10^5
- Concentration (IL-1 alpha; [7]): 506.1 pg/mL and 475.9 pg/mL and 484.7 pg/mL
- conc/live cell (IL-1 alpha; [7]): 79.1 pg/10^5 and 79.3 pg/10^5 and 79.5 pg/10^5
- Concentration (IL-1 alpha; [8]): 488.9 pg/mL
- conc/live cell (IL-1 alpha; [8]): 79.3 pg/10^5
- Concentration (IL-1 alpha; [9]): 491.3 pg/mL and 481.8 pg/mL and 482.5 pg/mL
- conc/live cell (IL-1 alpha; [9]): 79.2 pg/10^5 and 92.6 pg/10^5 and 77.8 pg/10^5
- Concentration (IL-1 alpha; [10]): 485.2 pg/mL
- conc/live cell (IL-1 alpha; [10]): 83.2 pg/10^5
- Concentration (IL-1 alpha; [11]): 451.2 pg/mL and 427.3 pg/mL and 434.3 pg/mL
- conc/live cell (IL-1 alpha; [11]): 71.6 pg/10^5 and 60.2 pg/10^5 and 70.0 pg/10^5
- Concentration (IL-1 alpha; [12]): 437.6 pg/mL
- conc/live cell (IL-1 alpha; [12]): 67.3 pg/10^5
- Concentration (IL-1 alpha; [13]): 473.3 pg/mL and 470.7 pg/mL and 483.6 pg/mL
- conc/live cell (IL-1 alpha; [13]): 78.9 pg/10^5 and 73.6 pg/10^5 and 63.6 pg/10^5
- Concentration (IL-1 alpha; [14]): 475.9 pg/mL
- conc/live cell (IL-1 alpha; [14]): 72.0 pg/10^5
- Concentration (IL-1 alpha; [15]): 656.9 pg/mL and 616.5 pg/mL and 614.2 pg/mL
- conc/live cell (IL-1 alpha; [15]): 104.3 pg/10^5 and 99.4 pg/10^5 and 122.8 pg/10^5
- Concentration (IL-1 alpha; [16]): 629.2 pg/mL
- conc/live cell (IL-1 alpha; [16]): 108.8 pg/10^5
- Concentration (IL-1 alpha; [17]): 1.0 pg/mL and 5.3 pg/mL
- conc/live cell (IL-1 alpha; [17]): 0.2 pg/10^5 and 0.9 pg/10^5
- Concentration (IL-1 alpha; [18]): 3.1 pg/mL
- conc/live cell (IL-1 alpha; [18]): 0.6 pg/10^5
- Concentration (IL-1 alpha; PBMC + YY101 0.01 uM, no LPS): 1.0 pg/mL and 5.3 pg/mL
- conc/live cell (IL-1 alpha; PBMC + YY101 0.01 uM, no LPS): 0.2 pg/10^5 and 1.1 pg/10^5
- Concentration (IL-1 alpha; [19]): 3.1 pg/mL
- conc/live cell (IL-1 alpha; [19]): 0.6 pg/10^5
- Concentration (IL-1 alpha; PBMC + YY101 1 uM, no LPS): 5.3 pg/mL
- conc/live cell (IL-1 alpha; PBMC + YY101 1 uM, no LPS): 1.0 pg/10^5
- Concentration (IL-1 alpha; [20]): 5.3 pg/mL
- conc/live cell (IL-1 alpha; [20]): 1.0 pg/10^5
- Concentration (IL-1 alpha; PBMC + YY101 10 uM, no LPS): 31.7 pg/mL and 7.1 pg/mL
- conc/live cell (IL-1 alpha; PBMC + YY101 10 uM, no LPS): 5.0 pg/10^5 and 1.2 pg/10^5
- Concentration (IL-1 alpha; [21]): 19.4 pg/mL
- conc/live cell (IL-1 alpha; [21]): 3.1 pg/10^5
- Concentration (IL-1 alpha; PBMC + YY101 100 uM, no LPS): 10.4 pg/mL and 5.3 pg/mL
- conc/live cell (IL-1 alpha; PBMC + YY101 100 uM, no LPS): 1.6 pg/10^5 and 0.8 pg/10^5
- Concentration (IL-1 alpha; [22]): 7.9 pg/mL
- conc/live cell (IL-1 alpha; [22]): 1.2 pg/10^5
- LPS-induced IL-1a levels (in words) (IL-1 alpha; at 100.iM, LPS 5 ug/mL 24 hrs): further increased

Source: patent US20230146455A1, “TREATMENT OF INFLAMMATORY DISEASES WITH PEPTIDES AND PHARMACEUTICAL COMPOSITIONS” (Yuyu Pharma, Inc., priority 2020, published 2023)
